ChEMBL document CHEMBL1201862, “PubChem BioAssay data set” (2004)
Activity calls are given as the source filed them.

Assays:
[1] = target: DNA dC->dU-editing enzyme APOBEC-3A (Homo sapiens, UniProt P31941); assay: Dose Response confirmation of small molecule APOBEC3A DNA Deaminase Inhibitors via a fluorescence-based single-stranded DNA deaminase assay. [Related pubchem assays (depositor defined):AID493011, AID493024]; assay type: functional
[2] = target: DNA dC->dU-editing enzyme APOBEC-3G (Homo sapiens, UniProt Q9HC16); assay type: functional;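 further: Dose-response counterscreen measuring inhibition of APOBEC3G DNA deaminase activity, run while confirming APOBEC3A inhibitors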
[3] = target: T1, Short transient receptor potential channel 4 (Mus musculus, UniProt Q9QUQ5); assay: block of DAMGO-driven TRPC4 calcium entry – cell-based, HEK293 TRPC4/mu-opioid, Fluo-4 calcium, dose response (AID 434942); assay type: functional;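 further: potency of inhibitors blocking the TRPC4 calcium response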
T1 sequence (Q9QUQ5 whole entry): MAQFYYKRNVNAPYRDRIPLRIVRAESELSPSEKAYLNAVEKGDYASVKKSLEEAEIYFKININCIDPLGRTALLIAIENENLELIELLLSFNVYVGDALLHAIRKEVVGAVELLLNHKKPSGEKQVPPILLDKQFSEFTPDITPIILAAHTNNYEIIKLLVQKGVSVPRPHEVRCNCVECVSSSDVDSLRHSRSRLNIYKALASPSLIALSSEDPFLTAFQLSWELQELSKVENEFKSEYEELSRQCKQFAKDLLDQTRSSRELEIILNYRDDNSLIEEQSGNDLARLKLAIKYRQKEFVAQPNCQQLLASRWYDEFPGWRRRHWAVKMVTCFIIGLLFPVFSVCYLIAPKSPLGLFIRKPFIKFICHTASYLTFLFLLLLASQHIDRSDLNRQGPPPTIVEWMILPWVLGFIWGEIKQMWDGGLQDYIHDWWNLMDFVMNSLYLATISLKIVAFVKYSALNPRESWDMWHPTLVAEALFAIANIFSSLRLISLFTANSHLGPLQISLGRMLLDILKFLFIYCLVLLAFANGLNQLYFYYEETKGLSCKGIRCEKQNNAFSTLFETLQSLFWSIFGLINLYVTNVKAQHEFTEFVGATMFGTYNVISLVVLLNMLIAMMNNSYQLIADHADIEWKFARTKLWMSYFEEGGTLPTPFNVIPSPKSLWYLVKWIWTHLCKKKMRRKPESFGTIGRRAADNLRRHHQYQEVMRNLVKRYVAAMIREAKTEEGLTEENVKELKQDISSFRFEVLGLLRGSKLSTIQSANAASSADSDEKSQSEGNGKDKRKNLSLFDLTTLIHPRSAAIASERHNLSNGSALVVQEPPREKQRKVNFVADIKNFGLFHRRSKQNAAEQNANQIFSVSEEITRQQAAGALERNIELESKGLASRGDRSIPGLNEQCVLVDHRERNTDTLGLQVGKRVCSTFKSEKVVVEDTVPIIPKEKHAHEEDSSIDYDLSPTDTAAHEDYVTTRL

[4] = test system: Streptococcus sp. 'group A'; assay: Streptococcus pyogenes SK(-)GAS viability under kanamycin – luminescence, BacTiterGlo, confirmation, counter-screen for streptokinase expression inhibitor project, dose response (AID 1900); assay type: functional, organism-based
Streptokinase A = target: T2, Streptokinase A (Streptococcus pyogenes serotype M1, UniProt P10520); assay: viability-normalized secreted streptokinase activity reduction – plasminogen activation absorbance, OD405, dose response (AID 1914); assay type: functional, Streptococcus pyogenes M1 GAS;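 further: secreted streptokinase activity via plasminogen activation per viability signal from cell pellet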
T2 sequence (P10520 whole entry): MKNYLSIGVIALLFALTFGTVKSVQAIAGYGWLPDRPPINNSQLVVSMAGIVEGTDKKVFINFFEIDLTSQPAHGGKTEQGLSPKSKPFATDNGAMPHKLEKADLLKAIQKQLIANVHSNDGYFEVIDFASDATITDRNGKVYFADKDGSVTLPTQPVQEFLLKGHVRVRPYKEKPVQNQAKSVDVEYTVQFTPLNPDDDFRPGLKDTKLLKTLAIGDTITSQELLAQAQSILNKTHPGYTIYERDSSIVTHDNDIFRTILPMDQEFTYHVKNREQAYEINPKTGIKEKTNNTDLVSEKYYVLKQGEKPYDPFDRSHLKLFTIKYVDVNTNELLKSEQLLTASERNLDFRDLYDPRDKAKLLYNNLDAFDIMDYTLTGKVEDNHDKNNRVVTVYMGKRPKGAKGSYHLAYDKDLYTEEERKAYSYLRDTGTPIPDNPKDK

Streptococcus = assay: GAS UMAA2166 growth inhibition – luminescence, BacTiterGlo, counter-screen for streptokinase expression inhibitor project, dose response (AID 1915); assay type: functional, organism-based;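 further: potency for reduction of bacterial viability or growth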
[5] = target: T3, Ubiquitin-conjugating enzyme E2 N (Homo sapiens, UniProt P61088); assay type: functional;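 further: Dose-response confirmation in a TR-FRET assay detecting UBC13-driven polyubiquitin chain formation, inhibition measured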
T3 sequence (P61088 whole entry): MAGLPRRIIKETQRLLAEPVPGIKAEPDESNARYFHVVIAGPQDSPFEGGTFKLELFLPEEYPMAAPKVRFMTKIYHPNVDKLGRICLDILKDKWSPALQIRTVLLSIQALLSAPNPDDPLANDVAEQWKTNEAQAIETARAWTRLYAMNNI

Nonstructural protein 1 = Nonstructural protein 1 (Influenza A virus, UniProt Q194T2); assay type: functional, Influenza A virus (A/California/07/2009(H1N1))
[6] = target: T4, DNA repair protein RAD52 homolog (Homo sapiens, UniProt P43351); assay type: functional, biochemical
T4 sequence (P43351 whole entry): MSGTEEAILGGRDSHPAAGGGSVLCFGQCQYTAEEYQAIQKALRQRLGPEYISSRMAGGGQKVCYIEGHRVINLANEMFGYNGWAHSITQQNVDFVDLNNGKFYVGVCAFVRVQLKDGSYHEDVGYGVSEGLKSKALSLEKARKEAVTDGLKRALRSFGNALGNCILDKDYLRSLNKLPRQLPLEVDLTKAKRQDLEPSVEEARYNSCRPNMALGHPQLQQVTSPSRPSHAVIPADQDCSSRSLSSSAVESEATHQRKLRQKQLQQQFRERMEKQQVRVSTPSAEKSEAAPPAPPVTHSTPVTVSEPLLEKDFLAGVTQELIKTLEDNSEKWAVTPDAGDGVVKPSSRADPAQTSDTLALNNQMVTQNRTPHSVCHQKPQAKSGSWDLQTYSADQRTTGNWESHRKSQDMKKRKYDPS

Cytochrome P450 3A4 = Cytochrome P450 3A4 (Homo sapiens, UniProt P08684); conditions: Potency;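 further: confirmatory qHTS run detecting inhibitors and substrates of CYP3A4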
Leucine aminopeptidase = target: T5, Leucine aminopeptidase (Plasmodium falciparum 3D7, UniProt Q8IL11); assay: P. falciparum M17LAP inhibitors, primary screen, biochemical, fluorogenic H-Leu-NHMec substrate, 1536-well (AID 1619); assay type: functional
T5 sequence (Q8IL11 whole entry): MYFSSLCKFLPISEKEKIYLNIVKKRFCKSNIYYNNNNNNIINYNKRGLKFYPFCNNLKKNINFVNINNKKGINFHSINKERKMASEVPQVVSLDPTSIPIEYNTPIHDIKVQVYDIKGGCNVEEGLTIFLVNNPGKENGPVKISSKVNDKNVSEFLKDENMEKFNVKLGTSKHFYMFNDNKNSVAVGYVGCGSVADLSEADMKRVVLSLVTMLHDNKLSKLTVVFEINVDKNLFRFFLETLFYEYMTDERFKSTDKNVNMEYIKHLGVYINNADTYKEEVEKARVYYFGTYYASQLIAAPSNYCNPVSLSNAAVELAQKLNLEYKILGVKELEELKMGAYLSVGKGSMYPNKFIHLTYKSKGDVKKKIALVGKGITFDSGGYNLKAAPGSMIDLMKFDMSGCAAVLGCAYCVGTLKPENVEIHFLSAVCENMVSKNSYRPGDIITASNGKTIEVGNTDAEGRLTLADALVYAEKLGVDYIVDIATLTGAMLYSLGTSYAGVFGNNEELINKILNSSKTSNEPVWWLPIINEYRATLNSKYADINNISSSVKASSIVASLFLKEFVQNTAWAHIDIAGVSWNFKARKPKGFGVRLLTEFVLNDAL

[7] = target: T1, Short transient receptor potential channel 4; assay: calcium entry via TRPC4 opening agents – cell-based, HEK293 TRPC4/mu-opioid, Fluo-4 calcium, dose response (AID 434937); assay type: functional
Aminopeptidase N = target: T6, Aminopeptidase N (Plasmodium falciparum FcB1/Columbia, UniProt O96935); assay: malaria alanyl aminopeptidase activity blockers – biochemical, fluorogenic H-Leu-NHMec substrate, 1536-well (AID 1445); parameters: species or system Plasmodium falciparum 3D7, 3D7
T6 sequence (O96935 whole entry): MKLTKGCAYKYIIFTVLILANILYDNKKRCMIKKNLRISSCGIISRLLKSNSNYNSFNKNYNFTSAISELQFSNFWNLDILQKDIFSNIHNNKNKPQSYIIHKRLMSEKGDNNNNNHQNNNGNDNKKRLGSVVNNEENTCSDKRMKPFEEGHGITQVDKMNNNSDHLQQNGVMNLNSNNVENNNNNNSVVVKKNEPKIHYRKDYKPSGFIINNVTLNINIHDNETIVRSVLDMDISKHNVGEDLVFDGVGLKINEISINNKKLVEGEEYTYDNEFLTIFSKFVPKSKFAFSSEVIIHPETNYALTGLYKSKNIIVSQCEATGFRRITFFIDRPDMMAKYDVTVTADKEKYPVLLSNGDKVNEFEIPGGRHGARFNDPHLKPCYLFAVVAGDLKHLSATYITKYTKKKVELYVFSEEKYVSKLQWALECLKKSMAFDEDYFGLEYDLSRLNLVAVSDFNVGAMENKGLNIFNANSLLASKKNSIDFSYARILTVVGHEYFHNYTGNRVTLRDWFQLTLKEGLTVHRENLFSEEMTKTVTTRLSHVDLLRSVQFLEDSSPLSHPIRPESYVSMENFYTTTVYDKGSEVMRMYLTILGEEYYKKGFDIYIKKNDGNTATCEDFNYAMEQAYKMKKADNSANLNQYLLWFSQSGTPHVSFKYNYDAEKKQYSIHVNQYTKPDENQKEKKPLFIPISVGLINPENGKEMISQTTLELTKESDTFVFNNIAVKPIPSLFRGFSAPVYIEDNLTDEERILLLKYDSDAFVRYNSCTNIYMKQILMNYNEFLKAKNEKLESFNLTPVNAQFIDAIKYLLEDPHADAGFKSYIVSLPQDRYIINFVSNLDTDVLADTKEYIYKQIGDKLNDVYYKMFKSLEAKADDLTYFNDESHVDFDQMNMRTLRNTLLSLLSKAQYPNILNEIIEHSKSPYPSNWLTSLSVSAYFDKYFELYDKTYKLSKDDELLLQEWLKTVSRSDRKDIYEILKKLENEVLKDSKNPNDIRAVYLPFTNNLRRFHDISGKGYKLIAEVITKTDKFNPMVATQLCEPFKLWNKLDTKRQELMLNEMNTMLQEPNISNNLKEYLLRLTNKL

[8] = viability of uninfected HEp-2 cells – cell-based, HTS, cytotoxicity control for RSV inhibitor project, dose response (AID 2410); assay type: functional; conditions: human respiratory syncytial virus
[9] = target: T7, Polyadenylate-binding protein 1 (Homo sapiens, UniProt P11940); assay: MLLE binding blockers, Cy5 peptide tracer – biochemical, fluorescence polarization, Cy5-PAM2 peptide, secondary, miRNA deadenylation inhibitor project, dose response (AID 602260); assay type: functional; conditions: read-out: IC50_Mean
[10] = target: T7, Polyadenylate-binding protein 1; assay: MLLE domain peptide-binding blockers, IC50 – biochemical, fluorescence polarization, FITC-PAM2 peptide, dose response (AID 602259); assay type: functional; conditions: read-out: IC50_Mean

Sequence of Cytochrome P450 3A4 (P08684 whole entry): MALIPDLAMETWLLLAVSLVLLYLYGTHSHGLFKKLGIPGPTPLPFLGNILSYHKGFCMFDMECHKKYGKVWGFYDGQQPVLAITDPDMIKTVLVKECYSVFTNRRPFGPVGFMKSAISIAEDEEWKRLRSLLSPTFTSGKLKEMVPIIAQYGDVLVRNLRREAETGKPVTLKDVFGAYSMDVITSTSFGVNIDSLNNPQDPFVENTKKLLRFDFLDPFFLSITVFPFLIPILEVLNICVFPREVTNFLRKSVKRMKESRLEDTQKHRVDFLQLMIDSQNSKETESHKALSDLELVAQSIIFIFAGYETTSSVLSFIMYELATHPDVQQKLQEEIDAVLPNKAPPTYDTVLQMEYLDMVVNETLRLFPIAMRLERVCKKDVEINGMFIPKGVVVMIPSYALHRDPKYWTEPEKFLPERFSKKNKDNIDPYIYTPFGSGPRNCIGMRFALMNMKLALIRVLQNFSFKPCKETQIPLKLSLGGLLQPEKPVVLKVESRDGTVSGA
Sequence of DNA dC->dU-editing enzyme APOBEC-3G (Q9HC16 whole entry): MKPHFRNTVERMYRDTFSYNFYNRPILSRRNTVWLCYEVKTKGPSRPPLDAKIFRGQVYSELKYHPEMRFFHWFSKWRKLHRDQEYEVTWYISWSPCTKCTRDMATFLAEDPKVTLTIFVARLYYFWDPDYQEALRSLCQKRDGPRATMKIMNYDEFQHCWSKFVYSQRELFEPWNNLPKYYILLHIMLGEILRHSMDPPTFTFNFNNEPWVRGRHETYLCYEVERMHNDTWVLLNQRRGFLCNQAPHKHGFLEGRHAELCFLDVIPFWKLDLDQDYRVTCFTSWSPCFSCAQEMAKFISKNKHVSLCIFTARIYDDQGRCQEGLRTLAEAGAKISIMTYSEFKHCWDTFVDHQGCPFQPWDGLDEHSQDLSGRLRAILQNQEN
Sequence of DNA dC->dU-editing enzyme APOBEC-3A (P31941 whole entry): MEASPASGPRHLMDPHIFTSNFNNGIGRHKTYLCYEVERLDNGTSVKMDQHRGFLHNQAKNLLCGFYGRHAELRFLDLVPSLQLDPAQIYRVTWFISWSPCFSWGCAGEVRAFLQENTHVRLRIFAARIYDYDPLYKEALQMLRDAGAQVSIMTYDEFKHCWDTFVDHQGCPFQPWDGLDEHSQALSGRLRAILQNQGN
T7 sequence (P11940 whole entry, the tested form may be a part): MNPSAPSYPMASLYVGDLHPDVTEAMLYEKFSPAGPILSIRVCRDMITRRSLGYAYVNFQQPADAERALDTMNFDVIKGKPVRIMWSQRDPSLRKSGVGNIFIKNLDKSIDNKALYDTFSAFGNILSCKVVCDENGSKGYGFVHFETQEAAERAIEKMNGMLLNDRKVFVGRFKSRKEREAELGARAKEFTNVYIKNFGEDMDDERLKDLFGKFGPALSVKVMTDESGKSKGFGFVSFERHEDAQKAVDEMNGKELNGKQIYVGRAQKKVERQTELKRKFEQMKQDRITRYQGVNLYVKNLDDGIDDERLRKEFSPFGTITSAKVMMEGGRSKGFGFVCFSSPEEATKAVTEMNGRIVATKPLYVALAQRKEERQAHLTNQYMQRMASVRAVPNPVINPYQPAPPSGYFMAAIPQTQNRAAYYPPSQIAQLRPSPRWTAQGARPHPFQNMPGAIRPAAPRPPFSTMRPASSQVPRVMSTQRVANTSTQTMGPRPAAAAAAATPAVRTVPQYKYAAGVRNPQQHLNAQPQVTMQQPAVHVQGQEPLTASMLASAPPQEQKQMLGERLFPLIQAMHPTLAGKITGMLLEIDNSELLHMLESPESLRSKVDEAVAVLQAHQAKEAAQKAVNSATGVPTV
Sequence of Nonstructural protein 1 (Q194T2 whole entry): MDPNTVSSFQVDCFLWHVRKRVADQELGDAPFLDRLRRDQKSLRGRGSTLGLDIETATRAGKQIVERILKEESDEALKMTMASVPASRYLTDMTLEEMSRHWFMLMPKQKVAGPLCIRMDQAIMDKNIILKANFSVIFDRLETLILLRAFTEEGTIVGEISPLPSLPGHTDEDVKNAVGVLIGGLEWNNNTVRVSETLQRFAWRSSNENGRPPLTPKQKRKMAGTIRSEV

CCN1CCN(c2ccc(S(=O)(=O)N3CCCCC3)cc2NC(=O)Cc2ccccc2)CC1
IC50 [1]: 3.97 µM (active) | IC50 [2]: 5.57 µM (active)

Cc1ncsc1CCOC(=O)c1cccc([N+](=O)[O-])c1
EC50 [3]: 1.68 µM (active)

CC1(C)CC(N2CCOCC2)=CC(=[N+]2CCOCC2)C1
IC50 [1]: 2.59 µM (active) | IC50 [2]: 2.26 µM (active)

CN(C)CCCN=C(S)NCC(c1ccc(Cl)cc1Cl)c1c[nH]c2ccccc12 (centres undefined)
EC50 [4]: 5 µM (active) | EC50 (Streptokinase A): > 150 µM (not active) | EC50 (Streptococcus): 15.4 µM (active) | IC50 [5]: > 20 µM (inactive) | IC50 (Nonstructural protein 1): 65.8 µM (active) | AC50 [6]: 6.45 µM (active)

Cc1nc(NCc2ccccc2)c2nc(-c3ccccc3)n(CCN(C)C)c2n1
AC50 (Cytochrome P450 3A4): 12.6 µM (inconclusive)

CCOc1ccc(NC(=O)COC(=O)c2cccnc2)cc1
IC50 (Leucine aminopeptidase): 27.4 µM (active)

CCC1=C2CC[C@H]3C(=O)N(c4ccccc4)C(=O)[C@H]3[C@H]2[C@@]2(C)C(=O)N(CC(=O)OC)C(=O)N2C1=O
AC50 (Cytochrome P450 3A4): 15.8 µM (inconclusive)

Cc1cc(/C=C2\SC(=O)N(C)C2=O)c(C)n1-c1ccc(S(N)(=O)=O)cc1
IC50 [1]: 3.12 µM (active) | IC50 [2]: 4.58 µM (active)

C[C@@H]1C=C[C@](Cc2ccccc2)(C(=O)NCCCNc2ncc(C(F)(F)F)cc2Cl)N1C(=O)c1ccccc1
AC50 (Cytochrome P450 3A4): 3.98 µM (inconclusive)

Cc1c(C(=O)N(Cc2cccs2)C2CCS(=O)(=O)C2)oc2ccccc12 (centres undefined)
EC50 [3]: 1.68 µM (active) | EC50 [7]: 2.11 µM (active)

O=C(O)c1ccc2c(c1)C1C=CCC1C(c1cc3c(cc1Br)OCO3)N2 (centres undefined)
IC50 (Aminopeptidase N): 11 µM (active)

COc1ccc(OC)c(NC(=O)C2C3C=CC(C3)C2C(=O)NCc2ccccn2)c1 (centres undefined)
IC50 (Aminopeptidase N): 89.5 µM (active)

Cn1cccc1/C=C1\SC(=S)N(NC(=O)c2ccccc2O)C1=O
IC50 (Aminopeptidase N): 44.6 µM (active)

Cc1cc(S(=O)(=O)Nc2cccc(O)c2)c(C)s1
IC50 (Leucine aminopeptidase): 14.6 µM (active)

CSC1=NC2=C(CCCC2)C2(CCCCC2)N1
EC50 [3]: 5.96 µM (active)

Cc1ccc(S(=O)(=O)CCSc2cccc(C(=O)Nc3ccccc3C(=O)O)c2)cc1
IC50 (Leucine aminopeptidase): 9.59 µM (active) | CC50 [8]: 13.5 µM (active) | IC50 (Aminopeptidase N): 34.3 µM (active) | IC50 [9]: > 66 µM (inactive) | IC50 [10]: > 66 µM (inactive)

COC(=O)C1=C(C)N(Cc2ccccc2)C(NCCCCO)=N[C@H]1c1ccccc1
IC50 [1]: 2.27 µM (active) | IC50 [2]: 5.13 µM (active)

COC(=O)[C@@H]1C[C@@]2(O)[C@@H](O)[C@@H](O)[C@@H](O)C[C@H]2N1CC1CCCCC1
AC50 (Cytochrome P450 3A4): 12.6 µM (inconclusive)

Cc1ccc(-c2n[nH]c3c2C(c2ccccc2)N(c2ccc(C(=O)O)cc2)C3=O)cc1 (centres undefined)
IC50 (Aminopeptidase N): 30.4 µM (active)

O=C(CN1CCCCC1)N=Nc1c(O)[nH]c2ccccc12
EC50 [3]: 2.99 µM (active)
